Experimental findings from US12661410B2, “Compounds for targeted degradation of RET” (C4 Therapeutics, Inc., priority 2020, dated 2026) are described below.

Where a chain is given by its changes, count along the chain named. Read-outs that look alike come from different tables or passages of the source.

The target of one assay is T1, RET(KD: 658-1114 G810R) (Homo sapiens, UniProt P07949, G810R).
T1 construct: 658-1114; expressed in transfected cells; host or cells: 293T.165 (293T cells, generated in-house)
T1 sequence (P07949 658-1114 G810R): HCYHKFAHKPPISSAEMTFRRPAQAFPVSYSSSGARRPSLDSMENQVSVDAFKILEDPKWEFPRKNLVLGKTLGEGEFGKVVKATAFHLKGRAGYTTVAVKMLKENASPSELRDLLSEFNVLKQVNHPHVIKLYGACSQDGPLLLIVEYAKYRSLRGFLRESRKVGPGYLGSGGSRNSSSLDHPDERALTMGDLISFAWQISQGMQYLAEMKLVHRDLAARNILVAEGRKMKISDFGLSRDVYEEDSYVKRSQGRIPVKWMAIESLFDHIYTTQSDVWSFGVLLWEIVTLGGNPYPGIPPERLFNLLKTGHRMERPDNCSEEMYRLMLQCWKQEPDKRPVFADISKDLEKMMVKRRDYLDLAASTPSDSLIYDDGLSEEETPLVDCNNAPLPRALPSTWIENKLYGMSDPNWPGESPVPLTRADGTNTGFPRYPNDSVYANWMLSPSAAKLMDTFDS
Kind of assay: HiBiT-Degradation, RET G810R degradation assay (Nano-Glo HiBiT Lytic), 293T.165 cells. The class given is cell-based. The settings on record: for Emax / DC50: 6.0 hours; for Emax: % remaining protein, read-out: 293T.165 RET(KD: 658-1114 G810R) 6.0 hours (Emax); for DC50: read-out: 293T.165 RET(KD: 658-1114 G810R) 6.0 hours (DC50). The gist of the method:
(§1)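 HEK293T lines stably expressing HiBiT-tagged RET kinase domain (WT: 293T.144; G810R: 293T.165) were treated with degraders for 6 h in duplicate, 11-point half-log series from 10 μM top dose. Lysis with Nano-Glo HiBiT Lytic reagent, luminescence read; DC50 and Emax (% remaining protein) derived from dose-response curves.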

In a further assay the target is T2, RET (658-1114) (Homo sapiens, UniProt P07949).
T2 construct: 658-1114; expressed in transfected cells; host or cells: 293T.144 (293T cells, generated in-house)
T2 sequence (P07949 658-1114): T1 sequence (P07949 658-1114 G810R) with R153G
Kind of assay: HiBiT-Degradation, RET wild-type degradation assay (Nano-Glo HiBiT Lytic), 293T.144 cells. The settings on record: for Emax / DC50: 6.0 hours; for Emax: read-out: 293T.144 RET (658-1114) 6.0 hours (Emax); for DC50: read-out: 293T.144 RET (658-1114) 6.0 hours (DC50). The class given is cell-based. The gist of the method:
as §1

Setting [1] is: half-maximal degradation concentration.

As to `N#Cc1cnn2cc(-c3cnn([C@H]4CC[C@H](N5CCN(c6ccc(N[C@@H]7CCC(=O)NC7=O)cc6F)CC5)CC4)c3)nc(-c3ccc(N4CC5COCC(C4)N5Cc4ccccn4)nc3)c12` (single isomer, unassigned) [Compound 156], the “293T.165 RET(KD: 658-1114 G810R) 6.0 hours (IP) [nM]” value on RET(KD: 658-1114 G810R) was “++++ (<50 nM = ++++)”. Further, the Emax on RET(KD: 658-1114 G810R) and on RET (658-1114) (% remaining protein) was < 30% throughout. The DC50 on RET(KD: 658-1114 G810R) (setting [1]) and at RET (658-1114) (setting [1]) was < 50 nM each time. Further, the “293T.144 RET (658-1114) 6.0 hours (IP) [nM]” value (“293T.144 RET” below) on RET (658-1114) was “++++ (<50 nM = ++++)”.
For `CCC1(C(=O)NC(C)C)CCN(c2ccc(-c3cc(-c4ccc(N5CCN(C(=O)CN6CCC(c7ccc8c(N9CCC(=O)NC9=O)nn(C)c8c7)CC6)CC5)cc4)cn4ncc(C#N)c34)cn2)CC1` [Compound 64, 1-[5-[3-cyano-6-[4-[4-[2-[4-[3-(2,4-dioxohexahydropyrimidin-1-yl)-1-methyl-indazol-6-yl]-1-piperidyl]acetyl]piperazin-1-yl]phenyl]pyrazolo[1,5-a]pyridin-4-yl]-2-pyridyl]-4-ethyl-N-isopropyl-piperidine-4-carboxamide], on RET(KD: 658-1114 G810R), the Emax (as a rule, the size of the effect at its maximum, as opposed to the concentration needed) was < 30%. On RET(KD: 658-1114 G810R) (setting [1]), the DC50 (as a rule, the concentration giving 50% degradation) was < 100 nM. Further, at RET(KD: 658-1114 G810R) (HiBiT-Degradation), the “293T.165 RET(KD: 658-1114 G810R) 6.0 hours (Emax)” value is “++++ (< 30% = ++++)”, the “293T.165 RET(KD: 658-1114 G810R) 6.0 hours (IP) [nM]” value was “++++ (< 50 nM = ++++)” and the DC50 was < 100 nM. On RET (658-1114) (HiBiT-Degradation), the “293T.144 RET” value was “++++ (< 50 nM = ++++)”, the DC50 is < 50 nM and the Emax was < 30%.
Take `CCC1(c2ncccn2)CCN(c2ccc(-c3nc(-c4cnn([C@H]5CC[C@H](N6CCC(c7ccc(N[C@@H]8CCC(=O)NC8=O)cc7F)CC6)CC5)c4)cn4ncc(C#N)c34)cn2)CC1` (single isomer, unassigned) [Compound 140]: the “293T.165 RET(KD: 658-1114 G810R) 6.0 hours (IP) [nM]” value on RET(KD: 658-1114 G810R) was “++++ (<50 nM = ++++)”. The Emax on RET(KD: 658-1114 G810R) was < 50%; at RET (658-1114) (% remaining protein) it was < 30%. The DC50 on RET(KD: 658-1114 G810R) (setting [1]) was < 100 nM; at RET (658-1114) (setting [1]) it was < 50 nM. Also, on RET (658-1114), the “293T.144 RET” value is “++++ (<50 nM = ++++)”.
As to `CCC1(C(=O)NC2CCOCC2)CCN(c2ccc(-c3nc(-c4cnn([C@H]5CC[C@H](N6CCC(c7ccc(N[C@@H]8CCC(=O)NC8=O)cc7F)CC6)CC5)c4)cn4ncc(C#N)c34)cn2)CC1` (stereo in doubt) [Compound 143, 1-(5-(3-cyano-6-(1-((1R,4r)-4-(4-(4-(((R)-2,6-dioxopiperidin-3-yl)amino)-2-fluorophenyl)piperidin-1-yl)cyclohexyl)-1H-pyrazol-4-yl)pyrazolo[1,5-a]pyrazin-4-yl)pyridin-2-yl)-4-ethyl-N-(tetrahydro-2H-pyran-4-yl)piperidine-4-carboxamide], on RET(KD: 658-1114 G810R), the “293T.165 RET(KD: 658-1114 G810R) 6.0 hours (IP) [nM]” value is listed as “++++ (<50 nM = ++++)”. Besides, the Emax at RET(KD: 658-1114 G810R) and on RET (658-1114) (% remaining protein) was < 30% each time. Besides, the DC50 at RET(KD: 658-1114 G810R) (setting [1]) and on RET (658-1114) (setting [1]) was < 50 nM each time. For the same compound, the “293T.144 RET” value at RET (658-1114) is on record as “++++ (<50 nM = ++++)”.
Turning to `CCC1(C(=O)NC(C)C)CCN(c2ccc(-c3nc(-c4ccc(N5CCN(C(=O)CC6(O)CCN(c7ccc8c(N9CCC(=O)NC9=O)nn(C)c8c7)CC6)CC5)cc4)cn4ncc(C#N)c34)cn2)CC1` [Compound 173, 1-(5-(3-cyano-6-(4-(4-(2-(1-(3-(2,4-dioxotetrahydropyrimidin-1(2H)-yl)-1-methyl-1H-indazol-6-yl)-4-hydroxypiperidin-4-yl)acetyl)piperazin-1-yl)phenyl)pyrazolo[1,5-a]pyrazin-4-yl)pyridin-2-yl)-4-ethyl-N-isopropylpiperidine-4-carboxamide], on RET(KD: 658-1114 G810R), the “293T.165 RET(KD: 658-1114 G810R) 6.0 hours (IP) [nM]” value is “+++ (<100 nM = +++)”. Moreover, the Emax is < 50% on RET(KD: 658-1114 G810R) and < 30% on RET (658-1114) (% remaining protein). In addition, the DC50 on RET(KD: 658-1114 G810R) (setting [1]) is < 100 nM; on RET (658-1114) (setting [1]), < 50 nM. On RET (658-1114), the “293T.144 RET” value was “++++ (<50 nM = ++++)”.
